Measurements: PubChem BioAssay (NCI)
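Five concentrations, 48 hours, 96-well plates. The concentration for 50% growth inhibition is given as GI50. TGI: total growth inhibition.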

Legend:
Assay in all cases: inhibition of tumour cell growth, NCI panel, 48 h
[1] = tested on: SR leukemia
[2] = tested on: A498 renal
[3] = tested on: SN12C renal
[4] = tested on: A549 NSCLC
[5] = tested on: HT29 colon
[6] = tested on: 786-0 renal
[7] = tested on: OVCAR-4 ovarian
[8] = tested on: MDA-MB-231 breast
[9] = tested on: SF-268 CNS
[10] = tested on: K-562 leukemia
[11] = tested on: UACC-62 melanoma
[12] = tested on: U251 CNS
[13] = tested on: RXF 393 renal
[14] = tested on: BT-549 breast
[15] = tested on: SNB-75 CNS
[16] = tested on: HCT-15 colon
[17] = tested on: SK-MEL-5 melanoma
[18] = tested on: SW-620 colon
[19] = tested on: NCI-H522 lung
[20] = tested on: NCI-H226 lung
[21] = tested on: SF-539 CNS
[22] = tested on: M14 melanoma
[23] = tested on: PC-3 prostate
[24] = tested on: HS 578T breast
[25] = tested on: ACHN renal
[26] = tested on: SK-MEL-28 melanoma
[27] = tested on: DU-145 prostate
[28] = tested on: SNB-19 CNS
[29] = tested on: MCF7 breast
[30] = tested on: NCI-H23 lung
[31] = tested on: OVCAR-3 ovarian
[32] = tested on: OVCAR-5 ovarian
[33] = tested on: EKVX NSCLC
[34] = tested on: CAKI-1 renal
[35] = tested on: SF-295 CNS
[36] = tested on: COLO 205 colon
[37] = tested on: SK-OV-3 ovarian
[38] = tested on: UACC-257 melanoma
[39] = tested on: MDA-MB-435
[40] = tested on: LOX IMVI melanoma
[41] = tested on: KM12 colon
[42] = tested on: T-47D breast
[43] = tested on: NCI/ADR-RES ovarian
[44] = tested on: UO-31 renal
[45] = tested on: CCRF-CEM leukemia
[46] = tested on: RPMI-8226 leukemia
[47] = tested on: HCT-116 colon
[48] = tested on: SK-MEL-2 melanoma
[49] = tested on: HCC-2998 colon
[50] = tested on: IGROV1 ovarian
[51] = tested on: MALME-3M melanoma
[52] = tested on: MOLT-4 leukemia
[53] = tested on: HOP-92 NSCLC
[54] = tested on: OVCAR-8 ovarian
[55] = tested on: HOP-62 NSCLC
[56] = tested on: HL-60(TB) leukemia
[57] = tested on: NCI-H460 lung
[58] = tested on: TK-10 renal

Compound: NS(=O)(=O)OCC1OC(n2cnc3cncnc32)C(O)C1O (stereo not given)
- GI50 [1]: 15.3 nM
- TGI [1]: 21600 nM
- GI50 [2]: 21.6 nM
- TGI [2]: 82.1 nM
- GI50 [3]: < 10 nM
- TGI [3]: 36.9 nM
- GI50 [4]: 24.6 nM
- TGI [4]: 115 nM
- GI50 [5]: 27.5 nM
- TGI [5]: 105 nM
- GI50 [6]: 22.8 nM
- TGI [6]: 69.3 nM
- GI50 [7]: 10.3 nM
- TGI [7]: 74.5 nM
- GI50 [8]: 10.1 nM
- TGI [8]: 37.6 nM
- GI50 [9]: 26.7 nM
- TGI [9]: 279 nM
- GI50 [10]: 33.3 nM
- TGI [10]: 1220 nM
- GI50 [11]: 37.1 nM
- TGI [11]: 133 nM
- GI50 [12]: 22 nM
- TGI [12]: 74.9 nM
- GI50 [13]: 23.5 nM
- TGI [13]: 65 nM
- GI50 [14]: 27.5 nM
- TGI [14]: 91.3 nM
- GI50 [15]: 30.9 nM
- TGI [15]: 400 nM
- GI50 [16]: 28.3 nM
- TGI [16]: 105 nM
- GI50 [17]: 40.2 nM
- TGI [17]: 144 nM
- GI50 [18]: 16.7 nM
- TGI [18]: 155 nM
- GI50 [19]: < 10 nM
- TGI [19]: 23.2 nM
- GI50 [20]: 34.4 nM
- TGI [20]: 222 nM
- GI50 [21]: 20.6 nM
- TGI [21]: 46.7 nM
- GI50 [22]: 30 nM
- TGI [22]: 94.4 nM
- GI50 [23]: 31.2 nM
- TGI [23]: 237 nM
- GI50 [24]: 59.2 nM
- TGI [24]: 932 nM
- GI50 [25]: 28.8 nM
- TGI [25]: 94.5 nM
- GI50 [26]: 39 nM
- TGI [26]: 185 nM
- GI50 [27]: 17.8 nM
- TGI [27]: 132 nM
- GI50 [28]: 12.6 nM
- TGI [28]: 68.5 nM
- GI50 [29]: 18.5 nM
- TGI [29]: 80.6 nM
- GI50 [30]: 17.5 nM
- TGI [30]: 52.5 nM
- GI50 [31]: 35 nM
- TGI [31]: 297 nM
- GI50 [32]: < 11.4 nM
- TGI [32]: 74.7 nM
- GI50 [33]: 64 nM
- TGI [33]: 647 nM
- GI50 [34]: 18.1 nM
- TGI [34]: 46.3 nM
- GI50 [35]: 27.9 nM
- TGI [35]: 120 nM
- GI50 [36]: 29.1 nM
- TGI [36]: 84.7 nM
- GI50 [37]: 34.3 nM
- TGI [37]: 137 nM
- GI50 [38]: 43.1 nM
- TGI [38]: 244 nM
- GI50 [39]: 28.4 nM
- TGI [39]: 84.5 nM
- GI50 [40]: 22.8 nM
- TGI [40]: 54.8 nM
- GI50 [41]: 17.9 nM
- TGI [41]: 52.2 nM
- GI50 [42]: < 13.4 nM
- TGI [42]: 66.5 nM
- GI50 [43]: 10.3 nM
- TGI [43]: 50.3 nM
- GI50 [44]: 25.6 nM
- TGI [44]: 106 nM
- GI50 [45]: 38.9 nM
- TGI [45]: > 21100 nM
- GI50 [46]: 33.3 nM
- TGI [46]: 147 nM
- GI50 [47]: 15.7 nM
- TGI [47]: 33 nM
- GI50 [48]: 35.1 nM
- TGI [48]: 133 nM
- GI50 [49]: 31.2 nM
- TGI [49]: 97 nM
- GI50 [50]: 54.1 nM
- TGI [50]: 304 nM
- GI50 [51]: 46.9 nM
- TGI [51]: 272 nM
- GI50 [52]: 20.9 nM
- TGI [52]: 2420 nM
- GI50 [53]: 18.3 nM
- TGI [53]: 61.9 nM
- GI50 [54]: < 10 nM
- TGI [54]: 46.6 nM
- GI50 [55]: < 10 nM
- TGI [55]: 14.3 nM
- GI50 [56]: 55.6 nM
- GI50 [57]: 24 nM
- TGI [57]: 76.2 nM
- GI50 [58]: 21.4 nM
- TGI [58]: 71.3 nM
